From patent US12091399B2, “Phenyltetrazole derivatives as plasma kallikrein inhibitors” (Boehringer Ingelheim International GmbH, priority 2018, dated 2024)
Square brackets hold non-standard residues; d marks the D form. Peptide text beside a SMILES is read from it. * marks the point of attachment. pNA = O=[N+]([O-])c1ccc(N*)cc1; AMC = Cc1cc(=O)oc2cc(N*)ccc12; Cha = N[CH](CC1CCCCC1)C(=O)O; Abu = CC[CH](N)C(=O)O; Ms = CS(=O)(=O)*

How the values were obtained:
Assay type in all cases: biochemical
[1] = molecular target: Human FVIIa (Homo sapiens (Human), UniProt P08709); assay: Inhibition of FVIIa (Ki); conditions: substrate KM, enzyme FVIIa
Chain of Human FVIIa (P08709 213-466): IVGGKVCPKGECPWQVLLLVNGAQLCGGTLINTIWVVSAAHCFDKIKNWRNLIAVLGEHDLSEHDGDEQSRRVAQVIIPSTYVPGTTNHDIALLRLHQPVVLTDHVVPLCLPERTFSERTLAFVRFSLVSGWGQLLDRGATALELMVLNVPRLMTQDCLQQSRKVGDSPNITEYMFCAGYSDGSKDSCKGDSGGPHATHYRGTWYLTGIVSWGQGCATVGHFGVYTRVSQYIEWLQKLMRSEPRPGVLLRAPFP
Chain of Human FVIIa (P08709 61-212 partner): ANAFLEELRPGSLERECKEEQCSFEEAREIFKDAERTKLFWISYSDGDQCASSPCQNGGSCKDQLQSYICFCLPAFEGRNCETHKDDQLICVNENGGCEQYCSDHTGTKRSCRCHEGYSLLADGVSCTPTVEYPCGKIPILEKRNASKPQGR
Protocol: (§1) The ability of compounds of formula (I) to inhibit plasma kallikrein (PKK), Factor XIIa (FXIIa), Factor XIa (FXIa), Factor Xa (FXa), Factor IIa (alpha-thrombin; FIIa), plasmin, trypsin, tissue kallikrein 1 (TK1), Factor Vila (FVIIa), or FVIIa complexed with Tissue Factor, phospholipids and CaCl2) (FVIIa/TF/PL/CaCl2) was determined using the following biochemical assays in assay buffer (100 mM Tris, 150 mM NaCL, adjusted to a pH of 7.8 with HCl, and containing 0.1% (w/v) BSA and 0.05% (v/v) Tween20) in the presence of 1% (v/v) DMSO:
(§2) Human FVIIa (0.86 nM or 0.01 U/mL; Enzyme Research Laboratories) was incubated at 24° C. with 1.5 mM chromogenic Pefachrome® FVIIa (Loxo) and various concentrations of the test compound in assay buffer. Measurements were performed in a kinetic interval every 2nd minute for 16 min using a Spectramax M5 (Molecular Devices) measuring the optical absorbance at 405 nm.
(§3) The pIC50 values were then fitted using a four-parametric fitting procedure using GraphPad Prism (version 6; GraphPad Software, Inc.). Respective Ki values were obtained by correction of the IC50 values for the respective KM value of the used substrate (see Table A for the obtained KM values of the used substrates) using the following formula: […]

[2] = molecular target: FVIIa/TF/PL/CaCl2 (Homo sapiens (Human), UniProt P08709); assay: Inhibition of FVIIa/TF/PL/CaCl2 (Ki); conditions: substrate KM, enzyme FVIIa/TF/PL/CaCl2
Chain of FVIIa/TF/PL/CaCl2 (P08709 213-466): as the sequence (P08709 213-466) above
Chain of FVIIa/TF/PL/CaCl2 (P08709 61-212 partner): as the sequence (P08709 61-212 partner) above
Chain of FVIIa/TF/PL/CaCl2 (P13726 33-295 partner): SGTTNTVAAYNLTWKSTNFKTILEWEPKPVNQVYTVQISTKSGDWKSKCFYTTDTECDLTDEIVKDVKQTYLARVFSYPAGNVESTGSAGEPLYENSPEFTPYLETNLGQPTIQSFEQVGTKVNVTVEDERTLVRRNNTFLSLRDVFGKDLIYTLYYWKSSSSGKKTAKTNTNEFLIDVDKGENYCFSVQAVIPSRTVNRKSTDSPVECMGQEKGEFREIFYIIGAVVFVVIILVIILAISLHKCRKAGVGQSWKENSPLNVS
Protocol: as §1
as §2, with “(300” for “(0.86”, “585” for “0.01”, “Laboratories) together with 10 mM CaCl2)*2H2O and 13.3% (v/v) Dade®Innovin® (Siemens; OQUMI94E0002(5534), which contains recombinant human tissue factor synthetic phospholipids (thromboplastin),” for “Laboratories)”
(§4) The pIC50 values were then fitted using a four-parametric fitting procedure using GraphPad Prism (version 6; GraphPad Software, Inc.). […]

[3] = molecular target: T1, Human PKK (Homo sapiens (Human), UniProt P03952); assay: Inhibition of PKK using an endpoint assay (human PKK); conditions: 1 h at rt, 0.10 μM H-Pro-Phe-Arg-AMC
T1 sequence (P03952 391-638): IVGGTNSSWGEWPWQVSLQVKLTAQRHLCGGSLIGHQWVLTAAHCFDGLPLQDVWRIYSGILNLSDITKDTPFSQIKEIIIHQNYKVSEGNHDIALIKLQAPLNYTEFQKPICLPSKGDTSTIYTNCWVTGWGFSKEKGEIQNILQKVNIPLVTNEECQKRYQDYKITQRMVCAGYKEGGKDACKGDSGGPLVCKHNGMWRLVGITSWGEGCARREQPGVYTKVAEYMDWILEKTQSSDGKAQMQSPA
T1 sequence (P03952 20-390 partner): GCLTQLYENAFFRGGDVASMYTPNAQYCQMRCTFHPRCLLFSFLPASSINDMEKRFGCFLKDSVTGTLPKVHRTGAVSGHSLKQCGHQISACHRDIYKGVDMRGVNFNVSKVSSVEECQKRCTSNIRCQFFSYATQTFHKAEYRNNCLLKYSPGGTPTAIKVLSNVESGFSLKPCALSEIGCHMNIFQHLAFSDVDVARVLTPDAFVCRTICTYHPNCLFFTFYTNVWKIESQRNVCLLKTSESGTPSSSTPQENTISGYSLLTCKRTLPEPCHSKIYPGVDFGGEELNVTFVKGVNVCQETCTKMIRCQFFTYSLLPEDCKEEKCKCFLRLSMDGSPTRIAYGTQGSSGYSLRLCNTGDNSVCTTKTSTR
Protocol: as §1
Subsequently, PPACK II (Calbiochem) was added as a stop solution to achieve a final concentration of 1 μM and fluorescence was measured using an Envision Reader (PerkinElmer) with the wavelength excitation setting of 355 nm and the wavelength emission setting of 460 nm. The number of the compound corresponds to the number of the Example in the experimental section.

[4] = molecular target: PKK in kaolin activated human platelet poor plasma (Homo sapiens (Human), UniProt P03952); assay: Inhibition of PKK in kaolin activated human PPP; conditions: global fit over 25, 75, 250, 750 μg/mL kaolin, 37° C.
Chain of PKK in kaolin activated human platelet poor plasma (P03952 391-638): as the sequence (P03952 391-638) above
Chain of PKK in kaolin activated human platelet poor plasma (P03952 20-390 partner): as the sequence (P03952 20-390 partner) above
Protocol: Platelet poor plasma (PPP) obtained from human wholeblood, anticoagulated with Na-Citrate, was incubated with various concentrations of the test compound together with either 25, 75, 250, or 750 μg/mL kaolin in assay buffer for 20 min at 37° C. such that for each kaolin dose used a concentration response was obtained for the test compound.
The number of the compound corresponds to the number of the Example in the experimental section.

[5] = molecular target: T1, Human PKK; assay: Inhibition of PKK (Ki), kinetic assay; conditions: 24° C., 0.25 mM H-Pro-Phe-Arg-AMC, IC50 corrected for KM
Protocol: as §1
Human PKK (1.78 nM or 0.025 U/mL; Enzyme Research Laboratories) was incubated at 24° C. with 0.25 mM fluorogenic substrate H-Pro-Phe-Arg-AMC (11295 from Bachem) and various concentrations of the test compound in assay buffer. Measurements were performed in a kinetic interval every 2nd minute for 16 min using a Spectramax M5 (Molecular Devices) with the following settings of the wavelength excitation of 350 nm and wavelength emission of 450 nm. The number of the compound corresponds to the number of the Example in the experimental section.
as §3
Where the IC50 is in mol/L and the KM value in mmol/L.

[6] = molecular target: human TK1 (Homo sapiens (Human), UniProt P06870); assay: Inhibition of TK1 (Ki); conditions: substrate KM, enzyme TK1
Chain of human TK1 (P06870 25-262): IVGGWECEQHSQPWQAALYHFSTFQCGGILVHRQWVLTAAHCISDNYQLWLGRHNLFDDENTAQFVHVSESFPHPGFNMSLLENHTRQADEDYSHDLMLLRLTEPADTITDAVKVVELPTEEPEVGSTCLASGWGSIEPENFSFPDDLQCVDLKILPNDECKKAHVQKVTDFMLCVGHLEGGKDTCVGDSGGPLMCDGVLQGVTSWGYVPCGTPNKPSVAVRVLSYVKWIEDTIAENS
Protocol: as §1
Prior to the assay, human TK1 (R&D Systems) was activated by incubation with human trypsin (Calbiochem) in a 1:10,000 ratio for 15 min at 37° C. For assaying TK1 inhibitory activity, activated TK1 (31.25 nM or 1 U/mL) was incubated at 24° C. with 0.1 mM fluorogenic substrate H-Pro-Phe-Arg-AMC (11295 from Bachem) and various concentrations of the test compound in assay buffer. Measurements were performed in a kinetic interval every 2nd minute for 16 min using a Spectramax M5 (Molecular Devices) with the following settings of the wavelength excitation of 350 nm and wavelength emission of 450 nm.
as §4

[7] = molecular target: Human plasmin (Homo sapiens (Human), UniProt P00747); assay: Inhibition of plasmin (Ki); conditions: substrate KM, enzyme Plasmin
Chain of Human plasmin (P00747 581-810): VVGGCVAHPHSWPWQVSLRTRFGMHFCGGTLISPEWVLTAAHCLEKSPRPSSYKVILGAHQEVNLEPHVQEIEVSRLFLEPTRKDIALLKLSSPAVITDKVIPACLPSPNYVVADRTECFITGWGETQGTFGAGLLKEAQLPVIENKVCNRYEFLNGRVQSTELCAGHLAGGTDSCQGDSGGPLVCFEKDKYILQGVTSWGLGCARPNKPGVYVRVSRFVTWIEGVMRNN
Chain of Human plasmin (P00747 97-580 partner): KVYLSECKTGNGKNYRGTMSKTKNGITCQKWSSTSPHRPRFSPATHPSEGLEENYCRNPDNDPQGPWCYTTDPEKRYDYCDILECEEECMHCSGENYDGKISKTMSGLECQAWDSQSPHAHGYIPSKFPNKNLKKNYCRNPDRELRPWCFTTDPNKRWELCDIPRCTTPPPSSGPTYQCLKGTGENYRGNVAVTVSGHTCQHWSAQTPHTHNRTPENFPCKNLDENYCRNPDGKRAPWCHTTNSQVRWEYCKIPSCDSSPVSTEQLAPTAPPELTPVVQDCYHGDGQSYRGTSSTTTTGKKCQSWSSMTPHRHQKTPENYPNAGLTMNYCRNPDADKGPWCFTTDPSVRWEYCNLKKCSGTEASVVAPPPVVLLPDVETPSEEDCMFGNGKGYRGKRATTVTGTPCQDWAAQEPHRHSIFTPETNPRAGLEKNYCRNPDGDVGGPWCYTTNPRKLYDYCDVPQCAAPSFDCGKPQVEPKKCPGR
Protocol: as §1
Measurements were performed in a kinetic interval every 2nd minute for 16 min using a Spectramax M5 (Molecular Devices) measuring the optical absorbance at 405 nm.
as §3

| SMILES | Km [1] [µM] | Km [2] [µM] | IC50 [3] [nM] | IC90 [4] [nM] | Ki [5] [nM] | Km [6] [µM] | Km [7] [µM] |
| --- | --- | --- | --- | --- | --- | --- | --- |
| CCC(NC(=O)C(CC1CCCCC1)NS(C)(=O)=O)C(=O)NC(CCCN=C(N)N)C(=O)Nc1ccc([N+](=O)[O-])cc1 (stereo not shown) [Pefachrome ® FVIIa] (Ms-[Cha]-[Abu]-Arg-pNA; configuration not given here) | 420 | 3920 |  |  |  |  |  |
| Cc1nc(N2CC3CC3C2)ccc1Cn1cc(C(=O)NCc2cc(Cl)ccc2-n2cnnn2)c(C(F)F)n1 (stereo not shown) [Example 9] |  |  | 1 | 239 | 0.8 |  |  |
| O=C(NCc1cc(Cl)ccc1-n1cnnn1)c1cn(Cc2ccc(N3CC4CC4C3)nc2)c2ncccc12 (stereo not shown) [Example 45] |  |  | 3 | 106 | 0.3 |  |  |
| Cc1cc(=O)oc2cc(NC(=O)[C@H](CCCNC(=N)N)NC(=O)[C@H](Cc3ccccc3)NC(=O)[C@@H]3CCCN3)ccc12 [Example I1295, H-Pro-Phe-Arg-AMC] (H-Pro-Phe-Arg-{AMC}) |  |  |  |  |  | 70 |  |
| COc1nn(Cc2ccc(N3CC4CC4C3)nc2)cc1C(=O)NCc1cc(Cl)ccc1-n1cnnn1 (stereo not shown) [Example 47] |  |  | 3 | 711 | 0.7 |  |  |
| CC(C)C[C@H](NC(=O)[C@H](N)C(C)C)C(=O)N[C@@H](CCCCN)C(=O)Nc1ccc([N+](=O)[O-])cc1 [Example S2251] (H-[dV]-Leu-Lys-pNA) |  |  |  |  |  |  | 1450 |
| Cc1nc(N2CC3CC3C2)ccc1Cn1cc(C(=O)NCc2cc(Cl)ccc2-n2cnnn2)c(-c2cnn(C)c2)n1 (stereo not shown) [Example 42] |  |  | 0.6 | 257 | 1 |  |  |
| Nc1nn(Cc2ccc(N3CC4CC4C3)nc2)cc1C(=O)NCc1cc(Cl)ccc1-n1cnnn1 (stereo not shown) [Example 52] |  |  | 0.6 | 103 | 0.4 |  |  |
| Cc1nc(N2CC3CC3C2)ccc1Cn1cc(C(=O)NCc2cc(Cl)ccc2-n2cnnn2)c2cncnc21 (stereo not shown) [Example 15] |  |  | 2 | 419 | 0.7 |  |  |
| Cc1nc(N2CC3CC3C2)ccc1Cn1cc(C(=O)NCc2c(-n3cnnn3)ccc(Cl)c2F)cn1 (stereo not shown) [Example 3] |  |  | 0.4 | 170 | 0.2 |  |  |
| O=C(NCc1cc(Cl)ccc1-n1cnnn1)c1cn(Cc2ccc(N3CC4CC4C3)nc2)nc1C(F)F (stereo not shown) [Example 44] |  |  | 1 | 341 | 0.5 |  |  |
| Cn1cc(-c2nn(Cc3ccc(N4CC5CC5C4)nc3)cc2C(=O)NCc2cc(Cl)ccc2-n2cnnn2)cn1 (stereo not shown) [Example 46] |  |  | 0.7 | 341 | 1 |  |  |
| COCc1nn(Cc2cnc(N3CC4CC4C3)nc2C)cc1C(=O)NCc1cc(Cl)ccc1-n1cnnn1 (stereo not shown) [Example 36] |  |  | 5 |  |  |  |  |
| Cc1nc(N2CC3C(C2)C3(F)F)ncc1Cn1cc(C(=O)NCc2c(-n3cnnn3)ccc(Cl)c2F)c(C)n1 (stereo not shown) [Example 33] |  |  | 0.8 |  |  |  |  |

Results, then the compound that gave them:

| Km [1] [µM] | Km [2] [µM] | IC50 [3] [nM] | IC90 [4] [nM] | Ki [5] [nM] | Km [6] [µM] | Km [7] [µM] | SMILES |
| --- | --- | --- | --- | --- | --- | --- | --- |
|  |  | 5 | 1150 | 0.8 |  |  | Cc1nc(N2CC3CC3C2)ccc1Cn1cc(C(=O)NCc2cc(Cl)c(F)cc2-n2cnnn2)cn1 (stereo not shown) [Example 2] |
|  |  | 0.4 | 184 |  |  |  | Cc1nc(N2CC3C(C2)C3(F)F)ccc1Cn1cc(C(=O)NCc2cc(Cl)ccc2-n2cnnn2)cn1 (stereo not shown) [Example 6] |
|  |  | 1 | 932 | 0.4 |  |  | Cc1nc(N2CC3CC3C2)ccc1Cn1cc(C(=O)NCc2cc(Cl)ccc2-n2cnnn2)c(Br)n1 (stereo not shown) [Example 49] |
|  |  | 0.8 | 316 | 0.5 |  |  | Cc1nc(N2CC3CC3C2)ccc1Cn1cc(C(=O)NCc2cc(Cl)ccc2-n2cnnn2)c(N)n1 (stereo not shown) [Example 48] |
|  |  | 3 | 969 | 1 |  |  | Cc1nc(N2CC3(C2)CC3(F)F)ccc1Cn1cc(C(=O)NCc2cc(Cl)ccc2-n2cnnn2)cn1 [Example 54] |
|  |  | 0.9 | 316 | 0.4 |  |  | Cc1ccc(-n2cnnn2)c(CNC(=O)c2cnn(Cc3ccc(N4CC5CC5C4)nc3C)c2)c1 (stereo not shown) [Example 5] |
|  |  | 0.7 | 847 | 0.3 |  |  | Cc1nc(N2CC3(CCC3)C2)ccc1Cn1cc(C(=O)NCc2cc(Cl)ccc2-n2cnnn2)cn1 [Example 59, 1-[(6-{2-azaspiro[3.3]heptan-2-yl}-2-methylpyridin-3-yl)methyl]-N-{[5-chloro-2-(1H-1,2,3,4-tetrazol-1-yl)phenyl]methyl}-1H-pyrazole-4-carboxamide] |
|  |  | 0.5 | 202 | 0.3 |  |  | Cc1nc(N2CC3CC3C2)ccc1Cn1cc(C(=O)NCc2cc(Cl)ccc2-n2cnnn2)cn1 (stereo not shown) [Example 1, 1-[(6-{3-azabicyclo[3.1.0]hexan-3-yl}-2-methylpyridin-3-yl)methyl]-N-{[5-chloro-2-(1H-1,2,3,4-tetrazol-1-yl)phenyl]-methyl}-1H-pyrazole-4-carboxamide] |
|  |  | 4 | 4070 | 2 |  |  | Cc1nc(N2CCC3(CCC3)C2)ccc1Cn1cc(C(=O)NCc2cc(Cl)ccc2-n2cnnn2)cn1 [Example 60, 1-[(6-{6-azaspiro[3.4]octan-6-yl}-2-methylpyridin-3-yl)methyl]-N-{[5-chloro-2-(1H-1,2,3,4-tetrazol-1-yl)phenyl]methyl}-1H-pyrazole-4-carboxamide] |
|  |  | 3 | 713 | 1 |  |  | COc1nn(Cc2ccc(N3CC4CC4C3)nc2C)cc1C(=O)NCc1cc(Cl)ccc1-n1cnnn1 (stereo not shown) [Example 21] |
|  |  | 0.9 | 396 | 0.8 |  |  | COCc1nn(Cc2ccc(N3CC4CC4C3)nc2C)cc1C(=O)NCc1cc(Cl)ccc1-n1cnnn1 (stereo not shown) [Example 13] |
|  |  | 0.5 | 209 | 0.3 |  |  | Cc1nc(N2CC3(CC3)C2)ccc1Cn1cc(C(=O)NCc2cc(Cl)ccc2-n2cnnn2)cn1 [Example 63, 1-[(6-{5-azaspiro[2.3]hexan-5-yl}-2-methylpyridin-3-yl)methyl]-N-{[5-chloro-2-(1H-1,2,3,4-tetrazol-1-yl)phenyl]methyl}-1H-pyrazole-4-carboxamide] |
|  |  | 0.9 | 252 | 0.8 |  |  | Cc1nc(N2C[C@@H]3[C@H](C)[C@@H]3C2)ccc1Cn1cc(C(=O)NCc2cc(Cl)ccc2-n2cnnn2)cn1 [Example 87] |
|  |  | 7 |  |  |  |  | Cc1nc(N2C[C@@H]3[C@@H](C)[C@@H]3C2)ccc1Cn1cc(C(=O)NCc2cc(Cl)ccc2-n2cnnn2)cn1 [Example 86] |
|  |  | 22 |  |  |  |  | CO[C@H]1[C@@H]2CC[C@H]1CN(c1ccc(Cn3cc(C(=O)NCc4cc(Cl)ccc4-n4cnnn4)cn3)c(C)n1)C2 [Example 80] |
